Measurements reported in the supplement of paper PMC10307832.

Experiments:
Assay in all cases: relative viability (nuclei count vs DMSO), 5 days (fraction); higher = more cells survive
[1] = compound: COc1cc2nccc(Oc3ccc(NC(=O)C4(C(=O)Nc5ccc(F)cc5)CC4)cc3)c2cc1OC [Cabozantinib] + C[C@]1(O)C[C@@H](c2nc(-c3ccc4ccc(-c5ccccc5)nc4c3)c3c(N)nccn32)C1 [Linsitinib] (partner 1 µM)
In short: (§1)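 Relative viability divides the nuclei count in treated wells by that in vehicle wells. Lung cancer cell lines were seeded in 1536-well plates, dosed by pin tool the next day, and fixed and stained after 5 days in one step with final 0.05% Triton X-100, 1% formaldehyde and 1 ug/ml Hoechst. Dosing was a single drug or a fixed anchor-drug dose plus five library-drug doses (not always all listed) in √10 steps, and values are medians of duplicate plates imaged at 4×.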

Zosuquidar + Luminespib = compound: O[C@@H](COc1cccc2ncccc12)CN1CCN([C@@H]2c3ccccc3[C@@H]3[C@H](c4ccccc42)C3(F)F)CC1 [Zosuquidar] + CCNC(=O)c1noc(-c2cc(C(C)C)c(O)cc2O)c1-c1ccc(CN2CCOCC2)cc1 [Luminespib] (partner 0.01 µM)
In short: as §1

Zosuquidar + OSI-027 = compound: O[C@@H](COc1cccc2ncccc12)CN1CCN([C@@H]2c3ccccc3[C@@H]3[C@H](c4ccccc42)C3(F)F)CC1 [Zosuquidar] + COc1cccc2cc(-c3nc([C@H]4CC[C@H](C(=O)O)CC4)n4ncnc(N)c34)[nH]c12 [OSI-027] (partner 0.5 µM)
In short: as §1

Zosuquidar + Pemetrexed = compound: O[C@@H](COc1cccc2ncccc12)CN1CCN([C@@H]2c3ccccc3[C@@H]3[C@H](c4ccccc42)C3(F)F)CC1 [Zosuquidar] + Nc1nc2[nH]cc(CCc3ccc(C(=O)N[C@@H](CCC(=O)O)C(=O)O)cc3)c2c(=O)[nH]1 [Pemetrexed] (partner 0.2 µM)
In short: as §1

Cell Line	relative viability ([1]; first compound 0.02 µM)	relative viability ([1]; first compound 0.06325 µM)	relative viability ([1]; first compound 0.2 µM)	relative viability ([1]; first compound 0.6325 µM)	relative viability ([1]; first compound 2 µM)	relative viability (Zosuquidar + Luminespib; first compound 0.01 µM)	relative viability (Zosuquidar + Luminespib; first compound 0.03162 µM)	relative viability (Zosuquidar + Luminespib; first compound 0.1 µM)	relative viability (Zosuquidar + Luminespib; first compound 0.3162 µM)	relative viability (Zosuquidar + Luminespib; first compound 1 µM)	relative viability (Zosuquidar + OSI-027; first compound 0.01 µM)	relative viability (Zosuquidar + OSI-027; first compound 0.03162 µM)	relative viability (Zosuquidar + OSI-027; first compound 0.1 µM)	relative viability (Zosuquidar + OSI-027; first compound 0.3162 µM)	relative viability (Zosuquidar + OSI-027; first compound 1 µM)	relative viability (Zosuquidar + Pemetrexed; first compound 0.01 µM)	relative viability (Zosuquidar + Pemetrexed; first compound 0.03162 µM)	relative viability (Zosuquidar + Pemetrexed; first compound 0.1 µM)	relative viability (Zosuquidar + Pemetrexed; first compound 0.3162 µM)	relative viability (Zosuquidar + Pemetrexed; first compound 1 µM)
NCI-H1563	0.853	1.3	1.37	1.11	0.957	0.471	0.536	0.523	0.538	0.532	0.751	0.663	0.753	0.762	0.827	0.623	0.786	0.679	0.729	0.743
NCI-H1651	1.06	0.969	1.06	0.958	0.733	0.897	0.973	0.655	0.862	0.792	0.78	0.694	0.633	0.657	0.725	0.55	0.653	0.425	0.533	0.644
NCI-H1666	1.05	0.819	0.847	0.811	0.925	0.966	0.978	0.945	1.01	1.08	0.844	0.919	0.8	0.957	0.957	0.807	0.855	0.741	0.92	0.909
NCI-H1734	0.959	0.916	0.929	0.831	0.517	0.222	0.251	0.182	0.187	0.184	0.587	0.612	0.541	0.697	0.662	0.366	0.382	0.395	0.422	0.447
NCI-H1755	0.982	0.967	0.965	0.841	0.834	0.335	0.729	0.564	0.358	0.471	0.736	0.67	0.516	0.821	0.722	0.448	0.428	0.426	0.426	0.452
NCI-H1792	0.669	0.588	0.511	0.483	0.496	0.334	0.234	0.38	0.673	0.293	0.786	0.601		0.837	0.753	0.746	0.705	0.474	1.04	0.933
NCI-H1793	1.21	1.01	0.7	0.814	0.65	0.179	0.263		0.207	0.207	0.315	0.389		0.287	0.311	0.898			1.01	0.832
NCI-H1915	1.1	1.12	1.09	1.01	1.12	0.742	0.839	0.792	0.753	0.811	0.642	0.624	0.529	0.637	0.599	0.518	0.527	0.413	0.489	0.474
NCI-H1944		1.18	1.09	1.12	1.07	0.76	0.655	0.722	0.785	0.651	0.381	0.384	0.328	0.479	0.412	0.583	0.585	0.604	0.678	0.665
NCI-H1975	1	1.09	0.895	0.965	0.898	0.264	0.174	0.217	0.213	0.182	0.789	0.684	0.679	0.885	0.832	0.279	0.299	0.293	0.272	0.29
NCI-H1993	0.776	0.722	0.712	0.69	0.718	0.874	0.78	1.55	0.778	0.75	0.632	0.677	0.488	0.497	0.525	0.578	0.624		0.642	0.636
NCI-H2009	1.23	1.17	1.18	1.19	1.23	1	1.07	0.986	1.02	0.989	0.64	0.684	0.529	0.782	0.645	1.04	1.04	1.01	0.902	1.06
NCI-H2023	0.637	0.76	0.465	0.459	0.316	0.796	0.619	0.904	0.776	0.759	0.354	0.401	0.325	0.665	0.427	0.224	0.233	0.212	0.302	0.297
